This experiment deals with L1210 leukemia ip in BDF1 mice, survival T/C. In words: NCI In Vivo Anticancer Drug Screen. Data for tumor model L1210 Leukemia (intraperitoneal) in B6D2F1 (BDF1) mice. The settings on record: endpoint: mean survival time, higher = longer survival. Summed up: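 Transplantable tumor model; survival measured in treated vs vehicle control mice. Value = treated/control.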
Setting [1] is: dose: 100.0 mg/kg/injection, schedule: Q01DX009 (ip), vehicle: saline.
[2] abbreviates: dose: 200.0 mg/kg/injection, schedule: Q01DX009 (ip), vehicle: saline with Tween-80.
Setting [3] is: dose: 200.0 mg/kg/injection, schedule: Q01DX009 (ip), vehicle: saline.
The mark [4] stands for this setting: dose: 100.0 mg/kg/injection, schedule: Q04DX003 (ip), vehicle: saline with Tween-80.
[5] abbreviates: dose: 200.0 mg/kg/injection, schedule: Q04DX003 (ip), vehicle: saline with Tween-80.
The mark [6] stands for this setting: dose: 400.0 mg/kg/injection, schedule: Q04DX003 (ip), vehicle: saline with Tween-80.

This is an account of results in PubChem BioAssay AID248 (DTP/NCI, 2004).

SMILES strings stand for the structures. Toxic doses and inconclusive results are not listed.

With `O=c1cc(C(F)(F)F)nc(C(F)(F)F)[nH]1`, the T/C is 90 % of control (dose: 29.0 mg/kg/injection, schedule: Q01DX Z (ip), vehicle: methylcellulose (MC)); 89 % of control (dose: 45.0 mg/kg/injection, schedule: Q01DX Z (ip), vehicle: methylcellulose (MC)); 89 % of control (dose: 67.0 mg/kg/injection, schedule: Q01DX Z (ip), vehicle: methylcellulose (MC)); 88 % of control (dose: 100.0 mg/kg/injection, schedule: Q01DX Z (ip), vehicle: methylcellulose (MC)).

With `CCCCc1csc(=S)[nH]1`, the T/C (dose: 100.0 mg/kg/injection, schedule: Q01DX001 (sc), vehicle: carboxymethylcellulose (CMC)) was 100 % of control; the T/C (dose: 200.0 mg/kg/injection, schedule: Q01DX001 (sc), vehicle: carboxymethylcellulose (CMC)) was 113 % of control; the T/C (dose: 400.0 mg/kg/injection, schedule: Q01DX001 (sc), vehicle: carboxymethylcellulose (CMC)) was 110 % of control.

As to `CC(=O)Nc1ccc2c(c1)C(N)c1ccccc1-2` (configuration not stated), the T/C (dose: 88.0 mg/kg/injection, schedule: Q01DX Z (ip), vehicle: carboxymethylcellulose (CMC)) is 103 % of control; the T/C (dose: 88.0 mg/kg/injection, schedule: Q01DX Z (ip), vehicle: saline) was 94 % of control; the T/C (dose: 100.0 mg/kg/injection, schedule: Q01DX001 (ip), vehicle: saline) was 113 % of control; the T/C under setting [1] was 105 % of control; the T/C (dose: 100.0 mg/kg/injection, schedule: Q04DX003 (ip), vehicle: saline) was 98 % of control; the T/C (dose: 132.0 mg/kg/injection, schedule: Q01DX009 (ip), vehicle: saline with Tween-80) is 111 % of control. Moreover, the T/C (dose: 132.0 mg/kg/injection, schedule: Q01DX009 (ip), vehicle: saline) was 99 % of control; the T/C (dose: 133.0 mg/kg/injection, schedule: Q01DX Z (ip), vehicle: carboxymethylcellulose (CMC)) was 92 % of control; the T/C (dose: 133.0 mg/kg/injection, schedule: Q01DX Z (ip), vehicle: saline) is 98 % of control; the T/C (dose: 200.0 mg/kg/injection, schedule: Q01DX001 (ip), vehicle: saline) is 113 % of control; the T/C under setting [2] is 118 % of control; the T/C under setting [3] is 108 % of control. The T/C was 105 % of control (dose: 200.0 mg/kg/injection, schedule: Q01DX Z (ip), vehicle: carboxymethylcellulose (CMC)); 103 % of control (dose: 200.0 mg/kg/injection, schedule: Q04DX003 (ip), vehicle: saline); 100 % of control (dose: 300.0 mg/kg/injection, schedule: Q01DX009 (ip), vehicle: saline); 109 % of control (dose: 400.0 mg/kg/injection, schedule: Q01DX001 (ip), vehicle: saline); 122 % of control (dose: 400.0 mg/kg/injection, schedule: Q04DX003 (ip), vehicle: saline).

With `Nc1nc(SCc2ccccn2)c2ncn(C3OC(CO)C(O)C3O)c2n1` (configuration not stated), the T/C by setting is: (dose: 6.25 mg/kg/injection, schedule: Q01DX Z (ip), vehicle: methylcellulose (MC)) 106 % of control; (dose: 12.5 mg/kg/injection, schedule: Q01DX Z (ip), vehicle: methylcellulose (MC)) 104 % of control; (dose: 25.0 mg/kg/injection, schedule: Q01DX Z (ip), vehicle: methylcellulose (MC)) 112 % of control.

As to `CCN(CC)c1ccc(C(=S)c2ccc(N(CC)CC)cc2)cc1`, the T/C (dose: 100.0 mg/kg/injection, schedule: Q01DX001 (ip), vehicle: other) is 91 % of control; the T/C (dose: 200.0 mg/kg/injection, schedule: Q01DX001 (ip), vehicle: other) is 91 % of control; the T/C (dose: 400.0 mg/kg/injection, schedule: Q01DX001 (ip), vehicle: other) was 95 % of control.

As for `N#Cc1cc2ccncc2c2ccccc12`, the T/C is 100 % of control under setting [4], 96 % of control under setting [5] and 97 % of control under setting [6].

In the case of `CCO/C(C)=C(/C(C)=O)C(=O)NC1CCCCC1`, the T/C runs as follows: (dose: 100.0 mg/kg/injection, schedule: Q01DX009 (ip), vehicle: saline with Tween-80) 100 % of control; under setting [4], 101 % of control; under setting [2], 100 % of control; under setting [5], 95 % of control; (dose: 400.0 mg/kg/injection, schedule: Q01DX009 (ip), vehicle: saline with Tween-80) 102 % of control; under setting [6], 98 % of control.

As for `COc1cc(C=Nc2ccc(-c3csc(-c4ccccc4)n3)c(Cl)c2)ccc1N(CCCl)CCCl`, the T/C was 122 % of control (dose: 13.3 mg/kg/injection, schedule: Q01DX001 (ip), vehicle: carboxymethylcellulose (CMC)); 158 % of control (dose: 20.0 mg/kg/injection, schedule: Q01DX009 (ip), vehicle: carboxymethylcellulose (CMC)); 166 % of control (dose: 100.0 mg/kg/injection, schedule: Q01DX001 (ip), vehicle: carboxymethylcellulose (CMC)); 95 % of control (dose: 200.0 mg/kg/injection, schedule: Q01DX001 (ip), vehicle: carboxymethylcellulose (CMC)).

`COc1ccc(Cl)cc1NC(=O)Nc1ccc(Cl)cc1[N+](=O)[O-]`: the T/C is 100 % of control (dose: 100.0 mg/kg/injection, schedule: Q01DX009 (ip), vehicle: Klucel (hydroxypropylcellulose) (HPC)); 94 % of control (dose: 200.0 mg/kg/injection, schedule: Q01DX009 (ip), vehicle: Klucel (hydroxypropylcellulose) (HPC)); 97 % of control (dose: 400.0 mg/kg/injection, schedule: Q01DX009 (ip), vehicle: Klucel (hydroxypropylcellulose) (HPC)).

Consider `Cc1ncc(CO)c(C)c1O`, for which the T/C reads like this: (dose: 0.03 mg/kg/injection, schedule: Q02DX010 (ip), vehicle: saline) 118 % of control; (dose: 0.04 mg/kg/injection, schedule: Q02DX010 (ip), vehicle: saline) 118 % of control; (dose: 0.07 mg/kg/injection, schedule: Q02DX010 (ip), vehicle: saline) 123 % of control; (dose: 0.15 mg/kg/injection, schedule: Q02DX010 (ip), vehicle: saline) 86 % of control; (dose: 0.23 mg/kg/injection, schedule: Q02DX010 (ip), vehicle: saline) 86 % of control; (dose: 12.5 mg/kg/injection, schedule: Q01DX009 (ip), vehicle: saline) 98 % of control. The T/C is, setting by setting: (dose: 22.81 mg/kg/injection, schedule: Q01DX Z (ip), vehicle: carboxymethylcellulose (CMC)) 102 % of control; (dose: 25.0 mg/kg/injection, schedule: Q01DX009 (ip), vehicle: saline) 95 % of control; (dose: 45.62 mg/kg/injection, schedule: Q01DX Z (ip), vehicle: carboxymethylcellulose (CMC)) 101 % of control; (dose: 50.0 mg/kg/injection, schedule: Q01DX009 (ip), vehicle: saline) 103 % of control; (dose: 91.25 mg/kg/injection, schedule: Q01DX Z (ip), vehicle: carboxymethylcellulose (CMC)) 105 % of control; under setting [1], 102 % of control. The T/C (dose: 182.3 mg/kg/injection, schedule: Q01DX Z (ip), vehicle: carboxymethylcellulose (CMC)) is 110 % of control and the T/C under setting [3] is 108 % of control.

Consider `CC12CC/C(=N/NC(=O)Cc3c[nH]c4ccccc34)CC1CCC1C2CCC2(C)C(OC(=O)c3ccccc3)CCC12` (configuration not stated), for which the T/C (dose: 100.0 mg/kg/injection, schedule: Q01DX001 (sc), vehicle: steriod suspending solution) is 101 % of control; the T/C (dose: 100.0 mg/kg/injection, schedule: Q01DX009 (sc), vehicle: steriod suspending solution) is 104 % of control; the T/C (dose: 200.0 mg/kg/injection, schedule: Q01DX001 (sc), vehicle: steriod suspending solution) was 100 % of control; the T/C (dose: 200.0 mg/kg/injection, schedule: Q01DX009 (sc), vehicle: steriod suspending solution) is 104 % of control; the T/C (dose: 400.0 mg/kg/injection, schedule: Q01DX001 (sc), vehicle: steriod suspending solution) is 111 % of control; the T/C (dose: 400.0 mg/kg/injection, schedule: Q01DX009 (sc), vehicle: steriod suspending solution) was 102 % of control.

Turning to `O=CN/N=C\c1cccc2ccccc12`, the T/C is, setting by setting: (dose: 75.0 mg/kg/injection, schedule: Q01DX001 (ip), vehicle: saline) 103 % of control; (dose: 150.0 mg/kg/injection, schedule: Q01DX001 (ip), vehicle: saline) 98 % of control; (dose: 300.0 mg/kg/injection, schedule: Q01DX001 (ip), vehicle: saline) 97 % of control.

For the molecule `CCOC(=O)/C(C#N)=C/c1cccn1Cc1ccc2ccccc2c1`, the T/C (dose: 100.0 mg/kg/injection, schedule: Q04DX002 (ip), vehicle: saline with Tween-80) is 101 % of control; the T/C (dose: 200.0 mg/kg/injection, schedule: Q04DX002 (ip), vehicle: saline with Tween-80) is 90 % of control; the T/C (dose: 400.0 mg/kg/injection, schedule: Q04DX002 (ip), vehicle: saline with Tween-80) was 90 % of control.
